Measured values: patent US9346799B2, “Useful combinations of monobactam antibiotics with beta-lactamase inhibitors” (Basilea Pharmaceutica AG, priority 2005, dated 2016)

Key:
Test in all cases: MIC by broth microdilution (NCCLS M7-A5)
[1] = tested on: Stenotrophomonas malthophilia 1AC736; conditions: Stenotrophomonas maltophilia 1AC736
[2] = tested on: Pseudomonas aeruginosa MK1184
[3] = tested on: Enterobacter cloacae P99
[4] = tested on: Klebsiella pneumoniae CF104
[5] = tested on: Serratia marcescens S6
[6] = tested on: Acinetobacter sp. J2; conditions: Acinetobacter baumannii J2
[7] = tested on: Pseudomonas aeruginosa 1973E
[8] = + 102 + clavulanate, 4 mg/L each
[9] = + 324 + clavulanate, 4 mg/L each

MIC of antibiotic [1, 8]	MIC of antibiotic [1, 9]	MIC of antibiotic ([1]; antibiotic alone)	MIC of antibiotic [2, 8]	MIC of antibiotic [2, 9]	MIC of antibiotic ([2]; antibiotic alone)	MIC of antibiotic [3, 8]	MIC of antibiotic [3, 9]	MIC of antibiotic ([3]; antibiotic alone)	MIC of antibiotic [4, 8]	MIC of antibiotic [4, 9]	MIC of antibiotic ([4]; antibiotic alone)	MIC of antibiotic [5, 8]	MIC of antibiotic [5, 9]	MIC of antibiotic ([5]; antibiotic alone)	MIC of antibiotic [6, 8]	MIC of antibiotic [6, 9]	MIC of antibiotic ([6]; antibiotic alone)	MIC of antibiotic [7, 8]	MIC of antibiotic ([7]; antibiotic alone)	SMILES	further results
1 µg/mL	1 µg/mL	4 µg/mL	4 µg/mL	8 µg/mL	>32 µg/mL	8 µg/mL	4 µg/mL	>32 µg/mL	0.5 µg/mL	0.5 µg/mL	>32 µg/mL	1 µg/mL	1 µg/mL	1 µg/mL	16 µg/mL	>32 µg/mL	>32 µg/mL	4 µg/mL	16 µg/mL	NC(=O)OCC1C(NC(=O)C(=NOCc2cc(=O)c(O)cn2O)c2csc(N)n2)C(=O)N1OS(=O)(=O)O (stereo not drawn) [Compound 25]	MIC of antibiotic [7, 9]: 8 µg/mL
8 µg/mL		8 µg/mL	32 µg/mL		>32 µg/mL	32 µg/mL		>32 µg/mL	2 µg/mL		>32 µg/mL	16 µg/mL		8 µg/mL	>32 µg/mL		>32 µg/mL	16 µg/mL	>32 µg/mL	CC1C(NC(=O)C(=NOCc2cc(=O)c(O)cn2O)c2csc(NC=O)n2)C(=O)N1S(=O)(=O)O (stereo not drawn) [Compound 28]	
0.5 µg/mL		1 µg/mL	8 µg/mL		>32 µg/mL	0.25 µg/mL		>32 µg/mL	0.5 µg/mL		>32 µg/mL	1 µg/mL		32 µg/mL	>32 µg/mL		>32 µg/mL	8 µg/mL	4 µg/mL	C[C@H]1[C@H](NC(=O)/C(=N\OCc2cc(=O)c(O)cn2O)c2nc(N)sc2Cl)C(=O)N1OS(=O)(=O)O [Compound 29, (3S,4S)-3-{(2Z)-2-(2-amino-5-chloro(1,3-thiazol-4-yl))-3-[(1,5-dihydroxy-4-oxo(2-hydropyridyl))methoxy]-3-azaprop-2-enoylamino}-4-methyl-2-oxoazetidinyl hydroxysulfonate]	MIC of antibiotic ([1]; + 102 + sulbactam, 4 mg/L each): 1 µg/mL; MIC of antibiotic ([1]; + 323 + sulbactam, 4 mg/L each): 1 µg/mL; MIC of antibiotic ([2]; + 102 + sulbactam, 4 mg/L each): 4 µg/mL; MIC of antibiotic ([2]; + 323 + sulbactam, 4 mg/L each): 8 µg/mL; MIC of antibiotic ([3]; + 102 + sulbactam, 4 mg/L each): 8 µg/mL; MIC of antibiotic ([3]; + 323 + sulbactam, 4 mg/L each): 8 µg/mL; MIC of antibiotic ([4]; + 102 + sulbactam, 4 mg/L each): 2 µg/mL; MIC of antibiotic ([4]; + 323 + sulbactam, 4 mg/L each): 2 µg/mL; MIC of antibiotic ([5]; + 102 + sulbactam, 4 mg/L each): 8 µg/mL; MIC of antibiotic ([5]; + 323 + sulbactam, 4 mg/L each): 8 µg/mL; MIC of antibiotic ([6]; + 102 + sulbactam, 4 mg/L each): 2 µg/mL; MIC of antibiotic ([6]; + 323 + sulbactam, 4 mg/L each): 2 µg/mL; MIC of antibiotic ([7]; + 102 + sulbactam, 4 mg/L each): 8 µg/mL; MIC of antibiotic ([7]; + 323 + sulbactam, 4 mg/L each): 8 µg/mL
0.5 µg/mL	0.5 µg/mL		4 µg/mL	4 µg/mL		32 µg/mL	8 µg/mL		>32 µg/mL	1 µg/mL	2 µg/mL	0.5 µg/mL	0.25 µg/mL		>32 µg/mL	4 µg/mL		16 µg/mL		CC1(C)C(NC(=O)C(=NOCc2cc(=O)c(O)cn2O)c2nsc(N)n2)C(=O)N1OS(=O)(=O)O (stereo not drawn) [Compound 32]	MIC of antibiotic [7, 9]: 8 µg/mL
